Measurements published in patent US10058540B2, “2-amino-5,5-difluoro-6-(fluoromethyl)-6-phenyl-3,4,5,6-tetrahydropyridines as BACE1 inhibitors” (H. Lundbeck A/S, priority 2014, dated 2018).
pKi: −log10 of the molar value.

Experiments:
BACE1 [1] = target: T1, BACE1 (Homo sapiens (Human), UniProt P56817); assay: BACE1 binding assay (SPA-based, radioligand); conditions: pH 4.5, Ki=IC50/(1+L/Kd)
Method: The binding assay was performed as SPA-based assay using a biotinylated form of human BACE1 recombinantly expressed and subsequently purified from Freestyle HEK293 cells. The binding assay was run in a 50 mM sodium acetate buffer, pH 4.5 containing 50 mM NaCl and 0.03% Tween-20 in white clear bottom 384 plates (Corning #3653). 10 nM (final concentration) radioligand ([^3H]-N-((1S,2R)-1-benzyl-3-cyclopropylamino-2-hydroxy-propyl)-5-(methanesulfonyl-methyl-amino)-N-((R)-1-phenyl-ethyl)-isophthalamide) (TRQ11569 purchased from GE Healthcare) was mixed with test compound at a given concentration, 6 nM (final concentration) human BACE1 and 25 μg Streptavidin coated PVT core SPA beads (RPNQ0007, GE Healthcare Life Sciences) in a total volume of 40 μl. Several concentrations of each test compound were tested in the assay for IC50 determination. The plates were incubated for one hour at room temperature and counted in a Wallac Trilux counter. Total and non-specific binding were determined using buffer and 1 μM (final concentration) of the high affinity BACE1 reference inhibitor (S)-6-[3-chloro-5-(5-prop-1-ynyl-pyridin-3-yl)-thiophen-2-yl]-2-imino-3,6-dimethyl-tetrahydro-pyrimidin-4-one, respectively. For each test compound, a IC50 value (the concentration mediating 50% inhibition of the specific binding of the radioligand) was determined from concentration-response curve and used to calculate the Ki from the equation Ki=IC50/(1+L/Kd), where L and Kd are the final concentration of the radioligand used in the assay and the dissociation constant of the radioligand, respectively. The Kd of the radioligand was determined from saturation binding experiments.

P-gp (MDR1) = assay: MDCK-MDR1 assay (permeability / Pgp efflux); assay type: in vitro ADME; conditions: dog, Papp BA/Papp AB, Pgp substrate when ≥2
Method: The permeability of the test compounds was assessed in MDCK-MDR1 cells that were cultured to confluency (4-6 days) in a 96 transwell plate. Test compounds were diluted with the transport buffer (HBSS+1% BSA) to a concentration of 0.5 μM and applied to the apical or basolateral side of the cell monolayer. Permeation of the test compounds from A to B direction or B to A direction was determined in triplicate over a 60-minute incubation time at 37° C. and 5% CO2 with a relative humidity of 95%. Test compounds were quantified by LC-MS/MS analysis based on the peaks area ratios of analyte/IS in both the receiver and donor wells of the transwell plate.
The apparent permeability coefficient Papp (cm/s) was calculated using the equation: Papp=(dCr/dt)×Vr/(A×C0) Where dCr/dt is the cumulative concentration of compound in the receiver chamber as a function of time (μM/s); Vr is the solution volume in the receiver chamber (0.05 mL on the apical side; 0.25 mL on the basolateral side); A is the surface area for the transport, i.e. 0.0804 cm^2 for the area of the monolayer; C0 is the initial concentration in the donor chamber (μM).
Compounds are classified Pgp substrates when efflux ratio (Papp BA/Papp AB) is ≥2.

BACE1 [2] = target: T1, BACE1; assay: BACE1 efficacy assay (FRET-based, commercial BACE1 kit); assay type: biochemical; conditions: 10 μM test compound
Method: The efficacy assay was performed as a FRET-based assay using a commercially available BACE1 kit (Life Technologies, P2985). 2 μl test compound at 10 μM (final concentration) and 15 μl BACE1 enzyme from the kit (final concentration 3 nM) were preincubated for 15 minutes at room temperature before addition of 15 μl of substrate from the kit (250 nM final concentration) and incubated for additional 90 minutes at room temperature. The assay plate was subsequently read in a Pherastar (Ex540/Em590). The enzyme activity observed in presence of test compound were normalized to the enzyme activity observed in presence of buffer and 10 μM (final concentration) of the high affinity BACE1 reference inhibitor (S)-6-[3-Chloro-5-(5-prop-1-ynyl-pyridin-3-yl)-thiophen-2-yl]-2-imino-3,6-dimethyl-tetra-hydropyrimidin-4-one, respectively. The efficacy of the test compounds was evaluated at 10 μM (final concentration) and defined as the percent inhibition of the enzyme activity using the equation % inhibition=100%−normalized enzyme activity in percent.

T1 sequence (P56817 46-501): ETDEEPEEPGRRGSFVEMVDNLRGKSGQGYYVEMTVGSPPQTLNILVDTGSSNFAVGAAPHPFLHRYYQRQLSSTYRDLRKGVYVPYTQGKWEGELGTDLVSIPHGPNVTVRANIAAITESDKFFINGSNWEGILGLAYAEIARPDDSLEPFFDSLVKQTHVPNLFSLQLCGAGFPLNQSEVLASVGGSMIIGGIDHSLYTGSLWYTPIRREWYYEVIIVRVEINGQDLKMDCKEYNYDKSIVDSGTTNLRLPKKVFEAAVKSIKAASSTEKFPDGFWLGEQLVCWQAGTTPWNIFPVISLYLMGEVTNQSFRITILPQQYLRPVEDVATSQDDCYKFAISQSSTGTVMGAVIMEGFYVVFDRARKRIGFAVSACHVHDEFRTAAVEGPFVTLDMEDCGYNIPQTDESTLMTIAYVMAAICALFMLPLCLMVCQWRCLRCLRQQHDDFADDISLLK

SMILES | pKi (BACE1 [1]) | efflux ratio at 60 min, 0.5 μM (P-gp (MDR1)) | inhibition at 10 µM (BACE1 [2]) [%]
NC1=N[C@](CF)(c2cc(NC(=O)c3ccc(Cl)cn3)ccc2F)C(F)(F)CC1 [Compound 1, (S)-N-(3-(6-amino-3,3-difluoro-2-(fluoromethyl)-2,3,4,5-tetrahydropyridin-2-yl)-4-fluorophenyl)-5-chloropicolinamide] | 8.24 | 1.75 | 104
Cc1nc(C(=O)Nc2cc(F)c(F)c([C@@]3(CF)N=C(N)CCC3(F)F)c2)co1 [Compound 10, (S)-N-(3-(6-amino-3,3-difluoro-2-(fluoromethyl)-2,3,4,5-tetrahydropyridin-2-yl)-4,5-difluorophenyl)-2-methyloxazole-4-carboxamide] | 7.26 | 3.57 | 102
NC1=N[C@](CF)(c2cc(NC(=O)c3ccn(C(F)F)n3)ccc2F)C(F)(F)CC1 [Compound 4, (S)-N-(3-(6-amino-3,3-difluoro-2-(fluoromethyl)-2,3,4,5-tetrahydropyridin-2-yl)-4-fluorophenyl)-1-(difluoromethyl)-1H-pyrazole-3-carboxamide] | 7.60 | 13.8 | 104
NC1=N[C@](CF)(c2cc(NC(=O)c3ccc(F)cn3)ccc2F)C(F)(F)CC1 [Compound 2, (S)-N-(3-(6-amino-3,3-difluoro-2-(fluoromethyl)-2,3,4,5-tetrahydropyridin-2-yl)-4-fluoro-phenyl)-5-fluoropicolinamide] | 7.66 | 2.6 | 104
COc1cnc(C(=O)Nc2ccc(F)c([C@@]3(CF)N=C(N)CCC3(F)F)c2)cn1 [Compound 3, (S)-N-(3-(6-amino-3,3-difluoro-2-(fluoromethyl)-2,3,4,5-tetrahydropyridin-2-yl)-4-fluoro-phenyl)-5-methoxypyrazine-2-carboxamide] | 7.89 | 2.84 | 104
N#Cc1ccc(C(=O)Nc2ccc(F)c([C@@]3(CF)N=C(N)CCC3(F)F)c2)nc1 [Compound 6, (S)-N-(3-(6-amino-3,3-difluoro-2-(fluoromethyl)-2,3,4,5-tetrahydropyridin-2-yl)-4-fluoro-phenyl)-5-cyanopicolinamide] | 7.70 | 2.07 | 103
NC1=N[C@](CF)(c2cc(NC(=O)c3coc(C(F)F)n3)ccc2F)C(F)(F)CC1 [Compound 5, (S)-N-(3-(6-amino-3,3-difluoro-2-(fluoromethyl)-2,3,4,5-tetrahydropyridin-2-yl)-4-fluoro-phenyl)-2-(difluoromethyl)oxazole-4-carboxamide] | 7.82 | 7.31 | 102
NC1=N[C@](CF)(c2cc(NC(=O)c3ccc(F)cn3)cc(F)c2F)C(F)(F)CC1 [Compound 12, (S)-N-(3-(6-amino-3,3-difluoro-2-(fluoromethyl)-2,3,4,5-tetrahydropyridin-2-yl)-4,5-difluorophenyl)-5-fluoropicolinamide] | 7.08 | 1.11 | 101
Cc1nc(C(=O)Nc2ccc(F)c([C@@]3(CF)N=C(N)CCC3(F)F)c2)co1 [Compound 7, (S)-N-(3-(6-amino-3,3-difluoro-2-(fluoromethyl)-2,3,4,5-tetrahydropyridin-2-yl)-4-fluoro-phenyl)-2-methyloxazole-4-carboxamide] | 7.49 | 4.59 | 96
COc1cnc(C(=O)Nc2ccc(F)c([C@@]3(CF)N=C(N)CCC3(F)F)c2)nc1 [Compound 8, (S)-N-(3-(6-amino-3,3-difluoro-2-(fluoromethyl)-2,3,4,5-tetrahydropyridin-2-yl)-4-fluoro-phenyl)-5-methoxypyrimidine-2-carboxamide] | 7.54 | 23.4 | –
NC1=N[C@](CF)(c2cc(NC(=O)c3cnc(C(F)F)cn3)ccc2F)C(F)(F)CC1 [Compound 9, (S)-N-(3-(6-amino-3,3-difluoro-2-(fluoromethyl)-2,3,4,5-tetrahydropyridin-2-yl)-4-fluoro-phenyl)-5-(difluoromethyl)pyrazine-2-carboxamide] | 7.52 | 1.76 | 103

Next, values leading:

pKi (BACE1 [1]) | efflux ratio at 60 min, 0.5 μM (P-gp (MDR1)) | inhibition at 10 µM (BACE1 [2]) [%] | SMILES
7.96 | 1.59 | – | NC1=N[C@](CF)(c2cc(NC(=O)c3ccc(Br)cn3)ccc2F)C(F)(F)CC1 [Compound 19, (S)-N-(3-(6-amino-3,3-difluoro-2-(fluoromethyl)-2,3,4,5-tetrahydropyridin-2-yl)-4-fluorophenyl)-5-bromopicolinamide]
7.60 | – | 109 | [2H]C([2H])([2H])Oc1ccc(C(=O)Nc2ccc(F)c([C@@]3(CF)N=C(N)CCC3(F)F)c2)nc1 [Compound 18, (S)-N-(3-(6-amino-3,3-difluoro-2-(fluoromethyl)-2,3,4,5-tetrahydropyridin-2-yl)-4-fluorophenyl)-5-(methoxy-d3)picolinamide]
7.68 | 1.1 | 106 | [2H]C([2H])([2H])Oc1ccc(C(=O)Nc2cc(F)c(F)c([C@@]3(CF)N=C(N)CCC3(F)F)c2)nc1 [Compound 16, (S)-N-(3-(6-amino-3,3-difluoro-2-(fluoromethyl)-2,3,4,5-tetrahydropyridin-2-yl)-4,5-difluorophenyl)-5-(methoxy-d3)picolinamide]
7.66 | 1.11 | 103 | NC1=N[C@](CF)(c2cc(NC(=O)c3ccc(Cl)cn3)cc(F)c2F)C(F)(F)CC1 [Compound 13, (S)-N-(3-(6-amino-3,3-difluoro-2-(fluoromethyl)-2,3,4,5-tetrahydropyridin-2-yl)-4,5-difluorophenyl)-5-chloropicolinamide]
7.80 | 2.21 | 111 | Cc1cc(C#N)cnc1C(=O)Nc1cc(F)c(F)c([C@@]2(CF)N=C(N)CCC2(F)F)c1 [Compound 17, (S)-N-(3-(6-amino-3,3-difluoro-2-(fluoromethyl)-2,3,4,5-tetrahydropyridin-2-yl)-4,5-difluorophenyl)-5-cyano-3-methylpicolinamide]
7.64 | 1.81 | 103 | N#Cc1ccc(C(=O)Nc2cc(F)c(F)c([C@@]3(CF)N=C(N)CCC3(F)F)c2)nc1 [Compound 14, (S)-N-(3-(6-amino-3,3-difluoro-2-(fluoromethyl)-2,3,4,5-tetrahydropyridin-2-yl)-4,5-difluorophenyl)-5-cyanopicolinamide]
